Experimental data published in BindingDB's records for doi:10.1016/j.bmcl.2006.02.063 (The University of Kansas, 2006).

experiment: Inhibition of Her2 in SKBr3 cells by ELISA

SMILES	IC50
CC1(C)CC(=O)C2C(=Nc3ccccc3NC2c2cccc(O)c2O)C1 (stereo not drawn) [3-(1-hydroxy-3,3-dimethyl-3,4,10,11-tetrahydro-2H-dibenzo[b,e][1,4]diazepin-11-yl)-benzene-1,2-diol]	61 µM
COc1cc(C2CC(c3ccccc3O)N=N2)ccc1O (stereo not drawn) [6-[5-(4-hydroxy-3-methoxyphenyl)-3-pyrazolidinylidene]-1-cyclohexa-2,4-dienone]	18 µM
O=S(=O)(Nc1ccc(Cl)cc1O)c1ccccc1	31 µM
